Data set [1] relates to transgenic Drosophila engineered to express the mutant huntingtin protein in all their neurons. The conditions noted are these: historical reference; cited from earlier work.
In data set [2] the test system is wildtype Drosophila fruit flies. Kind of data set: Toxicity of dimebon in wildtype Drosophila (eclosion number and timing). In kind it is in vivo. As for the experimental part: Dimebon was evaluated for toxicity levels in wildtype Drosophila fruit flies. Dimebon was administered daily at doses ranging from 10 μM to 1 mM to explore its toxicity. An untreated control group was also studied in this experiment. The concentrations given were concentrations of dimebon in the food that animals drink/eat ad libitum. The food consisted of cornmeal (61.2 g), dextrose (129.4. g), yeast (32.4 g) and agar (9.3 g) in 1 liter of water. Concentrated compounds were added to melted agar food cooled to just above the point of setting (about 40° C.), mixed and dispensed.
About 500 wild type Drosophila eggs were collected on grape juice plates for 20 hours, washed with distilled water and transferred 100 per vial to grow at 25 degrees C. The adult progeny were scored after eclosing (emerging from the pupal case) beginning 10 days later to assess developmental delay and toxicity. The criteria used for toxicity were the number (%) of animals that eclose and the time of the eclosing. For example, fewer animals may emerge from the pupal case if a drug is toxic or the same number of animals may eclose but more slowly than the untreated control group.
The toxicity test employed five concentrations (10 μM, 30 μM, 100 μM, 300 μM, 1 mM) plus an untreated control and was repeated with five sets of flies. […] At 1 mM, there was approximately a 20% decrease in eclosion observed, indicating toxicity at this food concentration. ANOVA analysis indicated a significant difference between datasets (p=0.0031), with post-hoc testing indicating a significant difference between the control and 1 mM datasets (p<0.01).

For data set [3], the system named is transgenic Drosophila engineered to express the mutant huntingtin protein in all their neurons. Kind of data set: Inhibition of mutant huntingtin-induced neurodegeneration of photoreceptor neurons in Drosophila eyes (pseudopupil scoring). In kind it is in vivo. The conditions noted are these: for rescue of photoreceptor neurons / rescue of photoreceptor neurons compared to untreated controls: FIG. 2; for rescue of photoreceptor neurons compared to untreated controls: 7 days on drug-containing food; for suppression of photoreceptor neuron degeneration, retest: FIG. 3; for protection of photoreceptors, overall statement: in vivo. As for the experimental part:
Dimebon was administered to one group of transgenic Drosophila engineered to express the mutant huntingtin protein in all their neurons. This was accomplished by cloning a foreign gene into transposable p-element DNA vectors under control of a yeast upstream activator sequence that is activated by the yeast GAL4 transcription factor. These promoter fusions were injected into fly embryos to produce transgenic animals. The foreign gene is silent until crossed to another transgenic strain of flies expressing the GAL4 gene in a tissue specific manner. The Elav>Gal4 which expresses the transgene in all neurons from birth until death was used in the experiments described.
For compound testing, 20-30 Httex1pQ93 virgins were mated to elav>Gal4 males and eggs were collected for about 20 hours at 25° C. and dispensed into vials (expected about 70% lethality from Htt effects). Upon eclosion, at least 80, 0-8 hour old flies were harvested and place on drug-containing food (20 eclosed adults per vial) and scored when 7 days old. Inhibitor-containing food was prepared just before tester flies began to emerge.
The two types of transgenic animals were crossed in order to collect enough closely matched aged controls to study. The crossed aged-matched adults (about 20 per dosing group) were placed on drug-containing food for 7 days. Animals were transferred to fresh food daily to minimize any effects caused by instability of the compounds. Survival was scored daily. The average number of photoreceptors at day zero was determined by scoring 7-10 of the newly eclosed tester siblings within six hours of eclosing. This established the baseline of degeneration at the time of exposure to drug. At day 7, animals were sacrificed and the number of photoreceptor neurons surviving was counted. […] For pseudopupil analysis, flies were decapitated and the heads are mounted in a drop of nail polish on a microscopic slide. The head was then covered with immersion oil and light is projected through the eye of the fly using a Nikon EFD-3/Optiphot-2 compound microscope with a 50× oil objective.

For data set [4] the test system is unchanged. As to the kind of experiment: Motor ability (climbing assay) in the Drosophila model. In kind it is in vivo. To be noted: for numbers surviving to be tested at day 7: initial number of 20 animals at day 0. As for the experimental part:
The motor function of Drosophila obtained as described in the examples above was assessed by exploiting the strong negative geotropism of flies to climb upwards when they are tapped to the bottom of a vial. See, Le Bourg and Lint (1992) Hypergravity and aging in Drosophila melanogaster. 4. […] activity. Gerontology 38, 59-64. Animals were placed in a graduated vessel (e.g., a measuring cylinder). The distance climbed in 10 seconds was measured for each animal over 3 trials with a 5 minute rest period. In a separate experiment using tall thin plastic tubes rather than glass vials, the distance climbed in 30 seconds was also measured. Animals were scored for outcome without knowledge of treatment group. Flies were tested for functional rescue using a behavior assay (climbing assay) where the distance climbed was measured. […] In this assay, climbing was scored blind and each animal was given 3 trials that were then averaged. The climbing of 7 day old animals reared on 0, 10, 100 or 1,000 μM containing food was compared as was the climbing of animals on the day of eclosion. Two trials were performed. In the first, the ability to climb in large glass vials was monitored over 10 seconds. […] The second trial was similar to the first except that animals were tested in tall thin plastic tubes for climbing over 30 seconds. […] The data from the two independent climbing trials are plotted as individual data points in FIG. 6A and 6B. A higher statistical power (e.g., 0.8) given the observed standard deviations and differences of the means may be achieved by doubling the size of the experiment for the highest concentration and increasing about 10 fold for the lower concentrations.

Entries after “also recorded” stand apart in the source; their conditions may differ.

Regarding `C[C@@H](N)[C@H]1CC[C@H](C(=O)Nc2ccncc2)CC1` [Y-27632], the “rescue of photoreceptor neurons, historical positive control” value in data set [1] is reported as “strongly rescuing”.
In the case of `Cc1ccc2c(c1)c1c(n2CCc2ccc(C)nc2)CCN(C)C1.Cl.Cl` [dimebon, 2,8-dimethyl-5-(2-(6-methyl-3-pyridyl)-ethyl)-2,3,4,5-tetrahydro-1H-pyrido[4,3-b]indole dihydrochloride], in data set [2] (1 mM), the “timing of emergence slowed” value is recorded as “approximately 1 day”. This molecule registered a decrease in eclosion in data set [2] (1 mM in the food) of around 20%. For the same molecule, the “toxicity (tolerability)” value in data set [2] (10 to 300 μM in the food, below 1 mM, dihydrochloride) is given as “generally well tolerated; also recorded: no significant toxicity”. In addition, the “toxicity in Drosophila, overall statement” value in data set [2] (FIG. 1 / experimental summary) is “minimal toxicity”. Further, the “rescue of photoreceptor neurons” value in data set [3] (10 μM) is listed as “lesser but still apparent rescue of neurons”; in data set [3] (1 mM), “still appeared to cause neuronal rescue, but to a lesser extent”. The “rescue of photoreceptor neurons compared to untreated controls” value in data set [3] (100 μM, dihydrochloride) was “statistically significant (p=0.0014) rescue of neurons”; in data set [3] (100 μM, listed as Dimebon, dihydrochloride), “significant suppression of neuronal degeneration”. For the same molecule, the “suppression of photoreceptor neuron degeneration, retest” value in data set [3] (100 μM, dihydrochloride) was “significant improvement; also recorded: significant rescue”; in data set [3] (higher doses (300 or 1,000 μM)), “no statistically demonstrable improvement”. In addition, the “suppression of photoreceptor neuron degeneration, lower concentrations” value in data set [3] (1, 10 and 30 μM, FIG. 4, dihydrochloride) is given as “no statistically significant improvement; also recorded: modest tendency for improved photoreceptor numbers”. Also, the “protection of photoreceptors, overall statement” value in data set [3] (dihydrochloride) was “effective in inhibiting mutant huntingtin-induced neurodegeneration”; in data set [3] (listed as Dimebon, dihydrochloride), “protect photoreceptors in a dose-dependant manner”. The “previously measured optimum concentration” value in data set [3] (photoreceptor rescue) was 100 µM. Besides, the “numbers surviving to be tested at day 7” value in data set [4] (10 μM) was found to be 8; in data set [4] (100 μM), 12; in data set [4] (1 mM), 8. For the same molecule, the “climbing behavior over 10 seconds” value in data set [4] (1 mM (1000 μM), 7 day old animals, glass vials, FIG. 5, dihydrochloride) is “significant difference between the control and 1000 μM; also recorded: statistically significant improvement in climbing; also recorded: statistical difference between D7ND and 1 mM”. In addition, the “climbing behavior over 30 seconds” value in data set [4] (10, 100 or 1,000 μM, tall thin plastic tubes, second trial, dihydrochloride) was “No statistically demonstrable difference between treated and control groups”.

The values are drawn from patent US20070117834A1, “Methods and compositions for treating Huntington's disease” (priority 2005, published 2007).
